Biological target: T1, 11β-HSD1 (Homo sapiens, UniProt P28845)
Assay: In vitro inhibition of 11β-HSD1, HTRF detection of cortisol generated by human liver microsomes (biological test example 1)
Type: biochemical
Design: detecting cortisol generated from cortisterone by human liver microsomes; from tissue; host or cells: human liver microsomes
Details: 1 hour at 37° C., cortisone 80 nM, NADPH 200 μM, read-out: IC50, inhibitory activity on 11β-HSD 1
Description: Briefly, compounds were incubated for 1 hour at 37° C. in Tris buffer (20 mM tris, 5 mM EDTA, pH 6.0) containing NADPH (200 μM) and cortisone (80 nM). Cortisol generated in the reaction was then detected with a competitive immunoassay, involving two HTRF conjugates: cortisol linked to XL665 and anti-cortisol antibody labeled with Europium cryptate. The incubation period for detection reaction was typically 2 hours. The amount of cortisol was determined by reading the time-resolved fluorescence of the wells (Ex 320/75 nm; Em 615/8.5 nm and 665/7.5 nm). The ratio of the two emission signals was then calculated (Em665*10000/Em615). […] Each assay also contained a calibration curve with cortisol to transform the fluorescent data into cortisol concentrations. Percent inhibition (% CTL) of each compound was determined relative to the carbenoxolone signal and IC50 curves were generated.

T1 sequence (P28845 whole entry): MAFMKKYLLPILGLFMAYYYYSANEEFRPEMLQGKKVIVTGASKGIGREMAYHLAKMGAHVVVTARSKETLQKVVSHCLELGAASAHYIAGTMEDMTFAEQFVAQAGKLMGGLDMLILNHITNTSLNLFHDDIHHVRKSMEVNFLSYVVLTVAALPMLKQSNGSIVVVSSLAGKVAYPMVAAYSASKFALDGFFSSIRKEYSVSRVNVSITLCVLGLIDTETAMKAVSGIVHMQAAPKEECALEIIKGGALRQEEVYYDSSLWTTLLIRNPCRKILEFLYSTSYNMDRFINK

Row | SMILES | IC50
1 | C[C@@H](c1ccc(-c2ccc(C3(C(N)=O)CCCC3)nc2)cc1)N1CC[C@](CC(C)(C)O)(c2ccccc2)OC1=O [Example 42, 1-[5-(4-{(S)-1-[(S)-6-(2-Hydroxy-2-methyl-propyl)-2-oxo-6-phenyl-[1,3]oxazinan-3-yl]-ethyl}-phenyl)-pyridin-2-yl]-cyclopentanecarboxylic acid amide] | 0.056 µM
2 | C[C@@H](c1ccc(-c2ccc(C3(C(N)=O)CCCCC3)nc2)cc1)N1CC[C@](CC(C)(C)O)(c2ccccc2)OC1=O [Example 43, 1-[5-(4-{(S)-1-[(S)-6-(2-Hydroxy-2-methyl-propyl)-2-oxo-6-phenyl-[1,3]oxazinan-3-yl]-ethyl}-phenyl)-pyridin-2-yl]-cyclohexanecarboxylic acid amide] | 0.067 µM
3 | CCOC(=O)C1(c2cc(-c3ccc([C@H](C)N4CC[C@](CC(C)(C)O)(c5ccccc5)OC4=O)cc3)ccn2)CC1 [Example 44, 1-[4-(4-{(S)-1-[(S)-6-(2-Hydroxy-2-methyl-propyl)-2-oxo-6-phenyl-[1,3]oxazinan-3-yl]-ethyl}-phenyl)-pyridin-2-yl]-cyclopropanecarboxylic acid ethyl ester] | 0.181 µM
4 | C[C@@H](c1ccc(-c2ccnc(C3(C(=O)O)CC3)c2)cc1)N1CC[C@](CC(C)(C)O)(c2ccccc2)OC1=O [Example 45, 1-[4-(4-{(S)-1-[(S)-6-(2-Hydroxy-2-methyl-propyl)-2-oxo-6-phenyl-[1,3]oxazinan-3-yl]-ethyl}-phenyl)-pyridin-2-yl]-cyclopropanecarboxylic acid] | 0.186 µM
5 | C[C@@H](c1ccc(-c2ccnc(C3(C(N)=O)CC3)c2)cc1)N1CC[C@](CC(C)(C)O)(c2ccccc2)OC1=O [Example 46, 1-[4-(4-{(S)-1-[(S)-6-(2-Hydroxy-2-methyl-propyl)-2-oxo-6-phenyl-[1,3]oxazinan-3-yl]-ethyl}-phenyl)-pyridin-2-yl]-cyclopropanecarboxylic acid amide] | 0.056 µM
6 | CNC(=O)C1(c2cc(-c3ccc([C@H](C)N4CC[C@](CC(C)(C)O)(c5ccccc5)OC4=O)cc3)ccn2)CC1 [Example 47, 1-[4-(4-{(S)-1-[(S)-6-(2-Hydroxy-2-methyl-propyl)-2-oxo-6-phenyl-[1,3]oxazinan-3-yl]-ethyl}-phenyl)-pyridin-2-yl]-cyclopropanecarboxylic acid methylamide] | 0.065 µM
7 | C[C@@H](c1ccc(-c2ccnc(C3(C(=O)N(C)C)CC3)c2)cc1)N1CC[C@](CC(C)(C)O)(c2ccccc2)OC1=O [Example 48, 1-[4-(4-{(S)-1-[(S)-6-(2-Hydroxy-2-methyl-propyl)-2-oxo-6-phenyl-[1,3]oxazinan-3-yl]-ethyl}-phenyl)-pyridin-2-yl]-cyclopropanecarboxylic acid dimethylamide] | 0.047 µM
8 | C[C@@H](c1ccc(-c2ccc(C3(C(N)=O)CCOCC3)nc2)cc1)N1CC[C@](CC(C)(C)O)(c2ccccc2)OC1=O [Example 50, 4-[5-(4-{(S)-1-[(S)-6-(2-Hydroxy-2-methyl-propyl)-2-oxo-6-phenyl-[1,3]oxazinan-3-yl]-ethyl}-phenyl)-pyridin-2-yl]-tetrahydro-pyran-4-carboxylic acid amide] | 0.073 µM
9 | C[C@@H](c1ccc(-c2ccc(C3(C(N)=O)CCC3)nc2)cc1)N1CC[C@](CC(C)(C)O)(c2ccccc2)OC1=O [Example 51, 1-[5-(4-{(S)-1-[(S)-6-(2-Hydroxy-2-methyl-propyl)-2-oxo-6-phenyl-[1,3]oxazinan-3-yl]-ethyl}-phenyl)-pyridin-2-yl]-cyclobutanecarboxylic acid amide] | 0.08 µM
10 | C[C@@H](c1ccc(-c2ccc(C3CCN(C)C3=O)nc2)cc1)N1CC[C@](CC(C)(C)O)(c2ccccc2)OC1=O (stereo partly drawn) [Example 52, (S)-6-(2-Hydroxy-2-methyl-propyl)-3-((S)-1-{4-[6-(1-methyl-2-oxo-pyrrolidin-3-yl)-pyridin-3-yl]-phenyl}-ethyl)-6-phenyl-[1,3]oxazinan-2-one] | 0.042 µM
11 | C[C@@H](c1ccc(-c2ccc(N3CCC[C@@H]3C(N)=O)nc2)cc1)N1CC[C@](CC(C)(C)O)(c2ccccc2)OC1=O [Example 53, (R)-1-[5-(4-{(S)-1-[(S)-6-(2-Hydroxy-2-methyl-propyl)-2-oxo-6-phenyl-[1,3]oxazinan-3-yl]-ethyl}-phenyl)-pyridin-2-yl]-pyrrolidine-2-carboxylic acid amide] | 0.043 µM
12 | C[C@@H](c1ccc(-c2ccc(N3CCC[C@H]3C(N)=O)nc2)cc1)N1CC[C@](CC(C)(C)O)(c2ccccc2)OC1=O [Example 54, (S)-1-[5-(4-{(S)-1-[(S)-6-(2-Hydroxy-2-methyl-propyl)-2-oxo-6-phenyl-[1,3]oxazinan-3-yl]-ethyl}-phenyl)-pyridin-2-yl]-pyrrolidine-2-carboxylic acid amide] | 0.03 µM
13 | C[C@@H](c1ccc(-c2ccc(N3CCC[C@@H]3C(N)=O)nn2)cc1)N1CC[C@](CC(C)(C)O)(c2ccccc2)OC1=O [Example 55, (R)-1-[6-(4-{(S)-1-[(S)-6-(2-Hydroxy-2-methyl-propyl)-2-oxo-6-phenyl-[1,3]oxazinan-3-yl]-ethyl}-phenyl)-pyridazin-3-yl]-pyrrolidine-2-carboxylic acid amide] | 0.087 µM
14 | C[C@@H](c1ccc(-c2ccc(C3(O)CCN(C)C3=O)nc2)cc1)N1CC[C@](CC(C)(C)O)(c2ccccc2)OC1=O (stereo partly drawn) [Example 56, 3-((S)-1-{4-[6-(3-Hydroxy-1-methyl-2-oxo-pyrrolidin-3-yl)-pyridin-3-yl]-phenyl}-ethyl)-(S)-6-(2-hydroxy-2-methyl-propyl)-6-phenyl-[1,3]oxazinan-2-one] | 0.059 µM
15 | C[C@@H](c1ccc(-c2ccc(C3(C)CCN(C)C3=O)nc2)cc1)N1CC[C@](CC(C)(C)O)(c2ccccc2)OC1=O (stereo partly drawn) [Example 57, 3-((S)-1-{4-[6-(1,3-Dimethyl-2-oxo-pyrrolidin-3-yl)-pyridin-3-yl]-phenyl}-ethyl)-(S)-6-(2-hydroxy-2-methyl-propyl)-6-phenyl-[1,3]oxazinan-2-one] | 0.029 µM

Biological target: T1, 11β-HSD1
Assay: Inhibition of a microsomal preparation of 11β-HSD1, scintillation proximity assay, microsomes from CHO cells overexpressing human 11β-HSD1 (biological test example 2)
Type: biochemical
Design: expressed in transfected cells; host or cells: CHO cells (microsomes isolated from them)
Details: microsomes from CHO cells overexpressing human 11β-HSD1, SPA, [3H]cortisone, 90 minutes at room temperature; read-out: IC50, inhibitory activity on 11β-HSD 1
Description: All reactions were carried out at room temperature in 96 well clear flexible PET Microbeta plates (PerkinElmer). The assay begins by dispensing 49 μl of substrate solution [50 mM HEPES, pH 7.4, 100 mM KCl, 5 mM NaCl, 2 mM MgCl2, 2 mM NADPH and 160 nM [^3H]cortisone (1 Ci/mmol)] and mixing in 1 μL of the test compounds in dimethyl sulfoxide previously diluted in half-log increments (8 points) starting at 0.1 mM. After a 10 minute pre-incubation, 50 μL of enzyme solution containing microsomes isolated from CHO cells overexpressing human 11β-HSD1 (10-20 μg/ml of total protein) was added, and the plates were incubated for 90 minutes at room temperature. The reaction was stopped by adding 50 μl of the SPA beads suspension containing 10 μM 18β-glycyrrhetinic acid, 5 mg/ml protein A coated YSi SPA beads (GE Healthcare) and 3.3 μg/ml of anti-cortisol antibody (East Coast Biologics) in Superblock buffer (Bio-Rad). The plates were shaken for 120 minutes at room temperature, and the SPA signal corresponding to [^3H]cortisol was measured on a Microbeta plate reader.

Row | SMILES | IC50
16 | C[C@@H](c1ccc(-c2ccn(C3COC3)c(=O)c2)cc1)N1CC[C@](CC(C)(C)O)(c2ccccc2)OC1=O [Example 26, (S)-6-(2-hydroxy-2-methylpropyl)-3-((S)-1-{4-[1-(oxetan-3-yl)-2-oxo-1,2-dihydropyridin-4-yl]phenyl}ethyl)-6-phenyl-1,3-oxazinan-2-one] | 0.0052 µM
17 | C[C@@H](c1ccc(-c2ccn(C3CNC3)c(=O)c2)cc1)N1CC[C@](CC(C)(C)O)(c2ccccc2)OC1=O [Example 27, 3-((S)-1-{4-[1-(azetidin-3-yl)-2-oxo-1,2-dihydropyridin-4-yl]phenyl}ethyl)-(S)-6-(2-hydroxy-2-methylpropyl)-6-phenyl-1,3-oxazinan-2-one] | 0.0274 µM
18 | C[C@@H](c1ccc(-c2cnc(N3CCNC3=O)nc2)cc1)N1CC[C@](CC(C)(C)O)(c2ccccc2)OC1=O [Example 28, (S)-6-(2-hydroxy-2-methylpropyl)-3-((S)-1-{4-[2-(2-oxoimidazolidin-1-yl)pyrimidin-5-yl]phenyl}ethyl)-6-phenyl-1,3-oxazinan-2-one] | 0.0084 µM
19 | C[C@@H](c1ccc(-c2cnc(N3CCN(C)C3=O)nc2)cc1)N1CC[C@](CC(C)(C)O)(c2ccccc2)OC1=O [Example 29, (S)-6-(2-hydroxy-2-methylpropyl)-3-((S)-1-{4-[2-(3-methyl-2-oxoimidazolidin-1-yl)pyrimidin-5-yl]phenyl}ethyl)-6-phenyl-1,3-oxazinan-2-one] | 0.0098 µM
20 | C[C@@H](c1ccc(-c2cnc(N3CCCC3=O)nc2)cc1)N1CC[C@](CC(C)(C)O)(c2ccccc2)OC1=O [Example 30, (S)-6-(2-hydroxy-2-methylpropyl)-3-((S)-1-{4-[2-(2-oxopyrrolidin-1-yl)pyrimidin-5-yl)phenyl]ethyl}-6-phenyl-1,3-oxazinan-2-one] | 0.0032 µM
21 | C[C@@H](c1ccc(-c2ccc(N3CCC3)nn2)cc1)N1CC[C@](CC(C)(C)O)(c2ccccc2)OC1=O [Example 31, 3-((S)-1-{4-[6-(azetidin-1-yl)pyridazin-3-yl]phenyl}ethyl)-(S)-6-(2-hydroxy-2-methylpropyl)-6-phenyl-1,3-oxazinan-2-one] | 0.0009 µM
22 | C[C@@H](c1ccc(-c2cnc(N3CC(F)C3)nc2)cc1)N1CC[C@](CC(C)(C)O)(c2ccccc2)OC1=O [Example 32, 3-((S)-1-{4-[2-(3-fluoroazetidin-1-yl)pyrimidin-5-yl]phenyl}ethyl)-(S)-6-(2-hydroxy-2-methylpropyl)-6-phenyl-1,3-oxazinan-2-one] | 0.0007 µM

— patent publication US9090605B2, “Substituted 5-,6- and 7-membered heterocycles, medicaments containing such compounds, and their use” (Vitae Pharmaceuticals, Inc., priority 2010, dated 2015)
